Assay [1] concerns Female Swiss-Webster mice. The assay is described as follows: Test B: antagonism of apomorphine-induced climbing and apomorphine-induced disruption of swimming. The class given is in vivo. The note with it: Mus musculus, po, read-out: minimum effective dose. As for the experimental part:
(§1) The compounds of Formula I are antagonists of dopamine D-2 receptors, and as such are predicted to be useful as antipsychotic drugs. D-2 antagonism can be shown by standard tests such as antagonism of [^3H]-spiperone binding (Test A), and/or antagonism of apomorphine-induced climbing and apomorphine- induced disruption of swimming (Test B).
Female Swiss-Webster mice weighing approximately 20 g were deprived of food for approximately 24 h and then dosed orally with various doses of either the vehicle or test agent over a range of doses (N = 20 mice per treatment group). Thirty minutes later they were dosed with apomorphine HCl at 1.25 mg/kg, sc, and placed into climbing cages. The climbing cages were 9 cm wide, 15 cm deep and 30 cm high. One wall had 27 horizontal rungs spaced 1 cm apart. Thirteen minutes after apomorphine each mouse was observed continuously for 1 min and the highest and lowest rung reached by its front paws was recorded. […] (The highest and lowest scores were 27 and 0, respectively.) Immediately after the 1-min climbing observation period each mouse was placed into a circular swimming tank for 2 min and the number of swims was counted. […] A "swim" was scored each time a mouse swam from one mark to the other. The mice were observed through overhead mirrors and the number of 180 degree swims was recorded for each mouse. […]

For assay [2], the target named is T1, dopamine (DA) D-2 receptor subtype (Rattus norvegicus, UniProt P61169).
T1 construct: Specifically, rat striatal membranes were used; from tissue; host or cells: rat striatum (membranes)
The assay is described as follows: Test A: dopamine D-2 receptor binding assay, displacement of [3H]-spiperone.
Description: as §1
The receptor binding assay used to measure affinities of various compounds for the dopamine (DA) D-2 receptor subtype was that described by Saller and Salama in J Pharmacol Exp Ther 236, page 714, 1986.
Specifically, rat striatal membranes were used. Tissue membranes were prepared and washed once in 50 volumes of the appropriate Tris HCl buffer. For the D-2 receptor binding assay, striatal membranes were suspended to a final concentration of 8 mg/ml in 50 mM Tris HCl with 40 nM ketanserin, pH 7.7. Nonspecific binding to D-2 receptors was measured in the presence of 1.0 µM (+)-butaclamol. IC50s (drug concentration which produced a 50% displacement) for the displacement of 0.5 nM [^3H] spiperone were determined using at least five concentrations of each drug in triplicate. One-half milliliter of membrane suspension was incubated with the compound of interest or vehicle or nonspecific drug, ligand and appropriate Tris HCl buffer. […] The amount of drug bound to the membranes was assessed using liquid scintillation counting techniques. […]
Background: Loss of bound radioactivity is the signal in a displacement assay; it reports binding, not function.

Structures are written as SMILES. Where two headings read alike, the source gives them in different places.

We go through two compounds from patent EP0533344B1, “Methanoanthracenes as dopamine antagonists” (ZENECA LIMITED, priority 1991, dated 1993).

T1 sequence (P61169 whole entry): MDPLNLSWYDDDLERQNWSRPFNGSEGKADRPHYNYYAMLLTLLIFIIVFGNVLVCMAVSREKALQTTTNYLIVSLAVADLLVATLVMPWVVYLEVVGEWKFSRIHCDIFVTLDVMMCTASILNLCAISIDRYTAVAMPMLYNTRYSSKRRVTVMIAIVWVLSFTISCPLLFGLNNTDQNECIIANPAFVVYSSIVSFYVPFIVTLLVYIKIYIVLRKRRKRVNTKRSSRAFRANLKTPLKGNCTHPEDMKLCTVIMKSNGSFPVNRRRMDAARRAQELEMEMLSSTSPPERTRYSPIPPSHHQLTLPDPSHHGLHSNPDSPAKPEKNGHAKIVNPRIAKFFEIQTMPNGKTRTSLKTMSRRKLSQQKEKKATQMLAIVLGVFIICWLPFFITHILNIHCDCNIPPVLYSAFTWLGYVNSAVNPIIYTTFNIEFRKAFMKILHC

What is called IC50 is the point on the concentration scale where inhibition reaches its midpoint. For `CC(C)(C)C1(O)CCN(CC23CC(c4ccccc42)c2ccc(Cl)cc23)CC1` (stereo not shown) [Example 49, 1-(2-Chloro-9,10-dihydro-9,10-methanoanthracen-9-ylmethyl)-4-(1,1-dimethylethyl)piperidin-4-ol], the minimal effective dose in assay [1] (dosed orally 30 min before apomorphine HCl 1.25 mg/kg sc, decreased climbing score with increased swimming score, typical result) was found to be 1.3 mg/kg. The IC50 in assay [2] (displacement of 0.5 nM [3H] spiperone, rat striatal membranes, 37°C for 15 min, typical result, read-out: IC50) amounted to 3 nM.
With `OC1(c2cccnc2)CCN(CC23CC(c4ccccc42)c2ccccc23)CC1` [Example 5, 1-(9,10-Dihydro-9,10-methanoanthracen-9-ylmethyl)-4-(3-pyridyl)piperidin-4-ol], the minimal effective dose in assay [1] was 20 mg/kg. Moreover, in assay [2], the IC50 was 12 nM.
